From US8097624B2, “Cycloalkyl derivatives of 3-hydroxy-4-pyridinones” (Apotex Inc., priority 2006, dated 2012)

Key:
Format in all cases: binding
[1] = Metal complexation constants, Ca system
Method: (§1) In a typical experiment, the sample solution was prepared by the following method: Apo6619 (31.91 mg) was weighed into a 25-ml beaker followed by the addition of 0.1 M NaCl (18.9 ml). The mixture was sonicated for 10 minutes to give a clear colorless solution. Aluminum stock solution (atomic absorption standard, Aldrich, 971 μl, 3.59×10^−5 mole) was pipetted into the solution followed by the addition of 1.000 N NaOH (229 μl) to give pH 8.56. The molar ratio between the total Aluminum and the total Apo6619 was 1:4. For M^2+ metals, a molar ratio of 1:3 was used. Nitrogen was allowed to bubble through the solution. The mixture was allowed to equilibrate at 22° C. for 2 hours. 1.000 N Hydrochloric acid (264 μl) was then added to the solution to give pH 2.20. The solution was allowed to equilibrate at 22° C. for 1 hour.
(§2) The solution was titrated against 1.000 N NaOH at 22° C. to reach pH 11.0. For each addition of base, the solution was allowed to equilibrate until a constant pH reading was reached. The volume of the base added and the pH reading were then recorded for each measurement. 93 measurements were used in the experiment.
(§3) The data set of pH vs. base volume was analyzed using Hyperquad 2000. Given the model: L^−+H^+ ? LH (pKa1), LH+H^+ ? LH2^+ (pKa2), Al^3++L^− ? ^AlL^2+ (K1), AlL^2++L^− ? AlL2^+ (K2), AlL2^++L^− ? AlL3 (K3), and β3=K1K2K3, the stepwise formation constants for Al-Apo6619 system were optimized as log K1=12.6(2); log K2=9.2(1); log K3=8.4(1); log β3=30.2(2).
(§4) pM^n+ is defined as −log [M(H2O)m]^n+ at physiological conditions, i.e.: pH 7.4, a ligand concentration of 10 μM, and a metal concentration of 1 μM.
(§5) To calculate pM^n+ for a MLn system, βn and pKa values are needed (βn are the formation constants for M^n++n L^− ? MLn; pKa are the equilibrium constants for L^−+n H^+ ? LHn^(n−1)+). The pM^n+ can be calculated by using Hyss software (Hyperquad Stimulation and Speciation software: HYSS2© 2000 Protonic Sofware).

[2] = Metal complexation constants, Al system (potentiometric titration; pM by Hyss); details: pH 7.4, ligand 10 μM, metal 1 μM
Method: as §1, with “1.000 N Hydrochloric acid (264 μl) was then added to the solution to give pH 2.20. The solution was allowed to equilibrate at 22° C. for 1 hour.” left out
The solution was titrated against 1.000 N NaOH at 22° C. to reach pH 11.0. For each addition of base, the solution was allowed to equilibrate until a constant pH reading was reached. The volume of the base added and the pH reading were then recorded for each measurement. […]
The data set of pH vs. base volume was analyzed using Hyperquad 2000. […]
as §5

[3] = Metal complexation constants, Mg system
Method: as §1, §2, §3, §4, §5

[4] = Metal complexation constants, Cu system
Method: as §1, §2, §3, §4, §5

[5] = Metal complexation constants, Zn system
Method: as §1, §2, §3, §4, §5

[6] = Metal complexation constants, Mn system
Method: as §1, §2, §3, §4, §5

[7] = pH 7.4, ligand 10 μM, metal 1 μM

CNC(=O)c1c(O)c(=O)cc(C)n1C1CC1 [Apo6619, 1-Cyclopropyl-3-hydroxy-6-methyl-4-oxo-1,4-dihydro-pyridine-2-carboxylic Acid Methylamide]
log K1 Ca(II) ([1]; log scale): 3 | log K2 Ca(II) ([1]; log scale): 2.1 | log β2 Ca(II) ([1]; log scale): 5.1 | PM Ca(II) [1, 7]: 6.0 | PM Al(III) [2]: 13.9 | log K1 Mg(II) ([3]; log scale): 4.1 | log K2 Mg(II) ([3]; log scale): 3.2 | log β2 Mg(II) ([3]; log scale): 7.3 | PM Mg(II) [3, 7]: 6.0 | log K1 Cu(II) ([4]; log scale): 8.9 | log K2 Cu(II) ([4]; log scale): 7.7 | log β2 Cu(II) ([4]; log scale): 16.6 | PM Cu(II) [4, 7]: 10 | log K1 Zn(II) ([5]; log scale): 6.3 | log K2 Zn(II) ([5]; log scale): 5.8 | log β2 Zn(II) ([5]; log scale): 12.1 | PM Zn(II) [5, 7]: 6.4 | log K1 Mn(II) ([6]; log scale): 5.1 | log K2 Mn(II) ([6]; log scale): 4.3 | log β2 Mn(II) ([6]; log scale): 9.4 | PM Mn(II) [6, 7]: 6.0
